Data: patent US9494572B2, “Method and compositions for treating cancer and related methods” (Icahn School of Medicine at Mount Sinai, priority 2011, dated 2016)
Read-outs that look alike come from different tables or passages of the source.

Assays:
H1650 xenograft tumors = assay: Tumorgenicity assay, H1650 xenograft; format: in vivo, nude mice; details: i.p., erlotinib 25 mg/kg, TFP 10 mg/kg, four treatments
Procedure: H1650 cells (5×10^6) were similarly injected into the right flank of 6 to 8-week old female BALB/c nu/nu mice. Tumor volume was assessed weekly as previously described by Sangodkar, J., et al., supra until volumes reached an average of 200 mm^3. […] A total of four treatments were given with a 48 h rest period.
Tumor growth was measured weekly until average tumor volume for all mice was approximately 200 mm^3. […] Tumor growth in H1650-injected nude mice was measured 24 hours after each drug injection. […] Lysate homogenates from treated and untreated tumors were run and probed in parallel (n=5); statistical significance of densitometry calculations indicated (*P<0.05; **P<0.01; ***P<0.001).

[1] = cited from earlier work
FOXO1 [2] = assay: Nuclear cytoplasmic fractionation of H1650; format: cell-based, human; details: 20 μM, 1 h
Procedure: H1650 cells were seeded and grown to 60-70% confluency, and treated with increasing doses of TFP. Cell lysates were extracted using NE-PER Nuclear and Cytoplasmic Extraction Reagents (Thermo Scientific) according to supplier's protocol.
Trifluoperazine Hydrochloride (TFP), a FDA-approved antipsychotic and antiemetic, is an effective nuclear export inhibitor of the FOXO1 transcription factor that increases FOXO1 nuclear localization via calmodulin inhibition upstream of AKT and downstream of PI3K. Kau, T. R., et al. Cancer Cell 4, 463-476 (2003). TFP was used to inhibit nuclear export of FOXO1 and determine if activation of the FOXO1/KLF6 transcriptional network could restore sensitivity to the PTEN-depleted, erlotinib-resistant cell line, H1650. To examine the effect of TFP on nuclear localization of FOXO1 and, subsequently, KLF6 expression, H1650 cells were treated for 1 h with increasing doses of TFP (0, 20 μM, 40 μM) and fractionated into nuclear and cytoplasmic fractions. BRCA1 served as a nuclear marker and GAPDH served as a cytoplasmic marker for the fractionation.

H1650 cell line = assay: Apoptosis (FACS sub-G1, cleaved PARP and Caspase 3) in H1650; format: cell-based, human
Procedure: (§1) Cells treated with drug or transfected with siRNA were stained with propidium iodide to ascertain DNA content and determine cell cycle distribution within the cell population as previously described. […] Sub-G1 peaks were analyzed on DNA histograms; hypo diploid DNA represented dead cells. This fraction indicated apoptotic as well as necrotic cells. Apoptosis was further validated by Caspase 3 and PARP cleavage through western blotting.
(§2) The role of KLF6 in induction of apoptosis in response to anti-EGFR therapeutics was further tested in cell culture.

KLF6 [3] = assay: KLF6 mRNA and protein expression in H1650; format: cell-based, human; details: 40 μM TFP, 1 h and 48 h
Procedure: (§3) RNA was isolated from cell lines and tumor samples using the RNeasy Mini Kit (Qiagen) as per manufacturer's instructions. For each PCR reaction, 1 μg RNA was reverse transcribed using iScript cDNA synthesis kit (BioRad Laboratories). Each cDNA sample was subjected to sequence-specific partial amplification with specific primers and the SYBR green PCR Master Mix (Applied Biosystems) on an ABI PRISM 7900HT plate-reader instrument. […] The following primers were also used: FOXO1 forward 5′ […]
as §2

H3255 = assay: Cell viability, H3255; format: cell-based; details: Homo sapiens, NCI-H3255
FOXO1 [4] = assay: FOXO1 immunocytochemistry in H1650 cells; details: 20 μM, 48 hours, vs untreated
Procedure: Viability of cells line H1650, A549luc and H3255 were determined for cells grown in control medium and medium supplemented with 10 μM, 20 μM and 40 μM chlorpromazine.
H1650 cells were plated on glass coverslips at a density of 150,000 cells in complete RPMI media. […] After incubation with a secondary goat anti-Rabbit IgG (1:1000), (H+L) FITC conjugate (Millipore, P307F), cover slips were mounted with Vectashield DAPI counterstain (H1200) and visualized under fluorescent microscope. A total of 100 cells per condition were counted to determine the distribution of FOXO1 in the cytoplasm vs. the nucleus.

A549luc = assay: Cell viability, A549luc; format: cell-based; details: Homo sapiens
H1650 = assay: Cell viability, H1650; format: cell-based; details: Homo sapiens, NCI-H1650
KLF6 [5] = assay: KLF6 mRNA and protein expression in A549; format: cell-based, human; details: 1 μM 72 h
Procedure: as §3

HCC827 cell line = test system: HCC827 cell line
Procedure: as §1
(§4) In addition, dysregulated activity of downstream mediators of EGFR signaling, such as PTEN, PI3K and K-Ras or amplification of the MET proto-oncogene can also drive the resistant phenotype.

[6] = test system: P-EGFR, P-AKT, P-FOXO1, T-FOXO1; assay: Western blot of EGFR-AKT-FOXO1 signaling in HCC827; format: cell-based, human
Procedure: EGFR activates two major downstream pathways, the Ras-Raf-MAPK and the PI3K-AKT signaling cascades, resulting in both increased cellular proliferation and survival. […] The role of PI3K-AKT signaling cascade was tested utilizing an antagonist of AKT signaling that acts by inhibiting of the PDK1 and 2 kinases that activate AKT.

KLF6 [7] = assay: KLF6 mRNA and protein expression (qRT-PCR, western) in HCC827; format: cell-based, human
Procedure: as §3

A549 cell line = assay: Apoptosis (FACS sub-G1 fraction, cleaved PARP) in A549; format: cell-based, human
Procedure: as §1, §4

shLuc-HCC827 = assay: Clonogenic assay, shLuc-HCC827; format: cell-based, human; details: control shLuc; 50 nM; 7 days
Procedure: HCC827 shLuc and shKLF6 were plated at a low density in 6-well plates. […] Cells were fixed and then stained with 1% crystal violet staining solution.

H1975 cell line = assay: Apoptosis (FACS sub-G1 fraction, cleaved PARP) in H1975; format: cell-based; details: Homo sapiens, NCI-H1975; H1975 (T790M EGFR); 72 h; read-out: IC50, erlotinib-mediated apoptosis
Procedure: as §1, §4

FOXO1 and KLF6 = format: cell-based, human
KLF6 [8] = assay: KLF6 mRNA and protein expression in H2122; format: cell-based, human; details: 1 μM 72 h
Procedure: as §3

[9] = test system: EGFR^L858R mutant mouse-derived tumors; details: in vivo
H2122 cell line = assay: Apoptosis (FACS sub-G1 fraction, cleaved PARP) in H2122; format: cell-based, human
Procedure: as §1, §4

ERK and AKT [10] = test system: ERK and AKT
Excerpt: (§5) The variable sensitivity of the lung adenocarcinoma cell lines to anti-EGFR-based therapy was used to determine the effects of EGFR inhibition on KLF6 gene transcription.

ERK and AKT [11] = test system: ERK and AKT; remark: listed apart in the source
Excerpt: as §5

Q: With CN1CCN(CCCN2c3ccccc3Sc3ccc(C(F)(F)F)cc32)CC1 [TFP, 10-[3-(4-methylpiperazin-1-yl)propyl]-2-(trifluoromethyl)-10H-phenothiazine] as the compound, how does the Tumor growth rate (H1650 xenograft tumors) read?
A: decreased

Q: What about the “average daily clinical dose for CNS effect” value (“average daily clinical dose” below) [1] of the same compound?
A: 0.3 µmol/kg

Q: And the “Nuclear FOXO1 expression” value (FOXO1 [2])?
A: increased nuclear FOXO1 expression

Q: What about the “Apoptosis (FACS, cleaved PARP, cleaved Caspase 3)” value (H1650 cell line; 40 μM TFP, 1 h) of the same compound?
A: increased apoptosis

Q: What about the “KLF6 mRNA and protein” value (KLF6 [3]) of the same compound?
A: upregulation of KLF6 mRNA and protein

Q: What does the source list for CN(C)CCCN1c2ccccc2Sc2ccc(Cl)cc21 [chlorpromazine, 3-(2-chloro-10H-phenothiazin-10-yl)-N,N-dimethyl-propan-1-amine]?
A: average daily clinical dose for CNS effect [1]: 12 µmol/kg; IC50 (H3255): 8 µM; Nuclear accumulation of FOXO1 (FOXO1 [4]): significant nuclear accumulation of FOXO1; IC50 (A549luc): 20 µM; Apoptosis (sub-G1 propidium iodide staining) (H1650 cell line; increasing doses of CPZ, 48 hrs): increased amount of apoptosis; IC50 (H1650): 20 µM

Q: For C#Cc1cccc(Nc2ncnc3cc(OCCOC)c(OCCOC)cc23)c1 [erlotinib, [6,7-bis(2-methoxyethoxy)-4-quinazolin-4-yl]-(3-ethynylphenyl) amine], which Tumor growth rate (H1650 xenograft tumors) is on record?
A: increased

Q: What about the “KLF6 expression, mRNA and protein” value (KLF6 [5]) of the same compound?
A: still upregulated

Q: What about the “Apoptosis (sub-G1 propidium iodide staining, cleaved PARP)” value (HCC827 cell line) of the same compound?
A: significantly increased levels of apoptosis

Q: And the “Cleaved PARP” value (HCC827 cell line)?
A: increased cleaved PARP

Q: What about the “Phosphorylated EGFR, AKT and FOXO1” value [6] of the same compound?
A: reduced phosphorylated forms of EGFR, AKT and FOXO1

Q: What about the “Total FOXO1” value [6] of the same compound?
A: increased total amount of FOXO1

Q: What about the KLF6 expression (KLF6 [7]) of the same compound?
A: significant upregulated

Q: What about the “KLF6 gene expression, endogenous mRNA and protein” value (KLF6 [7]) of the same compound?
A: Significant upregulation

Q: What about the Induction of apoptosis (A549 cell line; A549) of the same compound?
A: did not result in a significant induction of apoptosis

Q: And the IC50 (A549 cell line; Homo sapiens, A549, 72 h, read-out: IC50, erlotinib-mediated apoptosis)?
A: > 0.5 µM

Q: And the Colony formation (shLuc-HCC827)?
A: decreased colony formation

Q: What about the IC50 (H1975 cell line) of the same compound?
A: > 0.5 µM

Q: What about the “Nuclear localization of FOXO1 and KLF6” value (FOXO1 and KLF6) of the same compound?
A: increased

Q: What about the “KLF6 expression, mRNA and protein” value (KLF6 [8]) of the same compound?
A: still upregulated

Q: What about the “KLF6 expression in tumors” value [9] of the same compound?
A: increased KLF6 expression at both the mRNA and protein level

Q: And the “Spontaneous apoptosis, Caspase 3 cleavage in tumors” value [9]?
A: increased Caspase 3 cleavage

Q: What about the Induction of apoptosis (H2122 cell line; H2122) of the same compound?
A: did not result in a significant induction of apoptosis

Q: What about the IC50 (H2122 cell line; Homo sapiens, NCI-H2122, 72 h, read-out: IC50, erlotinib-mediated apoptosis) of the same compound?
A: > 0.5 µM

Q: What about the “Downstream ERK signaling” value (ERK and AKT [10]) of the same compound?
A: no changes in downstream ERK signaling

Q: What about the “Apoptosis (sub-G1 propidium iodide staining, cleaved PARP)” value (H1650 cell line; 1 μM erlotinib, 48 h) of the same compound?
A: no increase in apoptosis

Q: And the “Downstream ERK signaling” value (ERK and AKT [11])?
A: no changes in downstream ERK signaling

Q: For OCCN1CCN(CC/C=C2/c3ccccc3Sc3ccc(C(F)(F)F)cc32)CC1 [flupentixol], which “average daily clinical dose” value [1] is on record?
A: 0.01 µmol/kg

Q: Which “average daily clinical dose” value [1] does the source give for OCCN1CCN(CCCN2c3ccccc3Sc3ccc(C(F)(F)F)cc32)CC1 [fluphenazine] here?
A: 0.17 µmol/kg

Q: For OCCN1CCN(CCCN2c3ccccc3Sc3ccc(Cl)cc32)CC1 [perphenazine], which “average daily clinical dose” value [1] is on record?
A: ~1 µmol/kg

Q: For CN(C)CCCN1c2ccccc2Sc2ccccc21 [promazine], which average daily clinical dose for CNS effect [1] is on record?
A: 33 µmol/kg

Q: For CSc1ccc2c(c1)N(CCC1CCCCN1C)c1ccccc1S2 (stereo not drawn) [thiordazine], which “average daily clinical dose” value [1] is on record?
A: 13 µmol/kg

Q: With CN(C)CCCN1c2ccccc2Sc2ccc(C(F)(F)F)cc21 [triflupromazine] as the compound, how does the “average daily clinical dose” value [1] read?
A: 6 µmol/kg

Q: Which “average daily clinical dose” value [1] does the source give for OCCN1CCN(CC/C=C2/c3ccccc3Sc3ccc(Cl)cc32)CC1 [zuclopenthixol] here?
A: ~0.05 µmol/kg
